Measured values taken from patent US6610692B1, “Thrombin inhibitors” (Merck & Co., Inc., priority 1998, dated 2003).

Test system: not given
Experiment: not given
Conditions: not given
For `Cc1cc2[nH]cnc2cc1CNC(=O)Cn1c(C)cnc(NCCc2ccccn2)c1=O` [Example 33, 3-[2-(2-Pyridyl)ethylamino]-6-methyl-1-(5-methylenecarboxamidomethyl-6-methylbenzimidazolyl)-pyrazinone], the melting point was 175 to 184 °C. In the case of `Cc1cc2[nH]cnc2cc1CNC(=O)Cn1c(C)cnc(NCC2(c3ccccn3)CC2)c1=O` [Example 34, 3-[1-(2-Pyridyl)-cyclopropylmethylamino]-6-methyl-1-(5-methylenecarboxamidomethyl-6-methylbenzimidazolyl)-pyrazinone], the melting point is reported as 146 to 154 °C. With `Cc1cnc(NCCc2ccccn2)c(=O)n1CC(=O)NCc1ccc2[nH]cc(Cl)c2c1` [Example 35, 3-[2-(2-Pyridyl)ethylamino]-6-methyl-1-(3-chloro-5-methylene-carboxamidomethylindolyl)-pyrazinone] the melting point was 224 to 226 °C. `Cc1cnc(NCCc2ccccc2)c(=O)n1CC(=O)NCc1ccc2[nH]cc(Cl)c2c1` [Example 36, 3-(2-Phenethylamino)-6-methyl-1-(3-chloro-5-methylenecarboxamidomethylindolyl)-pyrazinone] gave a melting point of 223 to 226 °C. Work on `Cc1cnc(NCC2(c3ccccn3)CC2)c(=O)n1CC(=O)NCc1ccc2[nH]ccc2c1` [Example 39, 3-[1-(2-Pyridyl)cyclopropylmethylamino]-6-methyl-1-(5-methylenecarboxamidomethylindolyl)-pyrazinone] yielded a melting point of 212 to 215 °C. Compound `Cc1cnc(NCC2(c3ccccn3)CC2)c(=O)n1CC(=O)NCc1ccc2[nH]cnc2c1` [Example 41, 3-[1-(2-Pyridyl)cyclopropylmethylamino]-6-methyl-1-(5-methylenecarboxamidomethyl-benzimidazolyl)-pyrazinone] has a melting point of 134 to 139 °C.

Target: human α-thrombin (Homo sapiens, UniProt P00734)
Experiment: In vitro assay for determining proteinase inhibition: thrombin (sar-PR-pna or Z-GPR-afc substrate)
Format: biochemical
Conditions: not given
Description: In vitro Assay for Determining Proteinase Inhibition
The assays were carried out at 25° C. in 0.05 M TRIS buffer pH 7.4, 0.15 M NaCl, 0.1% PEG. Trypsin assays also contained 1 mM CaCl2.
Concentrations of stock solutions of Z-GPR-afc were determined from measurements of absorbance at 380 nm of the 7-amino-4-trifluoromethyl coumarin produced upon complete hydrolysis of an aliquot of the stock solution by thrombin.
Times required to achieve equilibration between enzyme and inhibitor were determined in control experiments. Initial velocities of product formation in the absence (Vo) or presence of inhibitor (Vi) were measured. Assuming competitive inhibition, and that unity is negligible compared Km/[S], [I]/e, and [I]/e (where [S], [I], and e respectively represent the total concentrations, of substrate, inhibitor and enzyme), the equilibrium constant (Ki) for dissociation of the inhibitor from the enzyme can be obtained from the dependence of Vo, Vi on [I] shown in equation 1: […]
With `Cc1cnc(NCCc2ccccn2)c(=O)n1CC(=O)NCc1cnc2[nH]ccc2c1` the Ki was under 20 nM.

Same assay, conditions: Table 1; 25° C., 0.05 M TRIS buffer pH 7.4, 0.15 M NaCl, 0.1% PEG; read-out: Inhibitory activity (Ki)
Work on `Cc1nc2[nH]nnc2cc1CNC(=O)Cn1c(C)cnc(NCCc2ccccc2)c1=O` yielded a Ki of over 20 nM. For `CCC[C@@H]1Cc2cc(C)n(CC(=O)NCc3ccc4[nH]ccc4c3)c(=O)c2NC1=O`, the Ki was under 20 nM. `Cc1cnc(NCCc2ccccc2)c(=O)n1CC(=O)NCc1cnc2[nH]nc(N)c2c1` showed a Ki of over 20 nM. `Cc1cnc(NCCc2ccccc2)c(=O)n1CC(=O)NCc1ccc2[nH]nnc2c1` gave a Ki of over 20 nM. `Cc1cc2c(c(=O)n1CC(=O)NCc1ccc3[nH]ccc3c1)NC(=O)[C@H](CC1CCC1)C2` gave a Ki of under 20 nM. For `Cc1cnc(NCCc2ccc3c(c2)OCO3)c(=O)n1CC(=O)NCc1ccc2[nH]ccc2c1`, the Ki was under 20 nM. `Cc1cnc(NCCc2cccnc2)c(=O)n1CC(=O)NCc1ccc2[nH]ccc2c1` showed a Ki of under 20 nM. With `Cc1cnc(NCCc2ccccn2)c(=O)n1CC(=O)NCc1ccc2c(cnn2C)c1` the Ki was over 20 nM. `Cc1cnc(NCCc2ccccc2)c(=O)n1CC(=O)NCc1ccc2c(cnn2C)c1` gave a Ki of over 20 nM. With `Cc1cnc(NCC(F)(F)c2ccccn2)c(=O)n1CC(=O)NCc1ccc2[nH]ccc2c1` the Ki was under 20 nM. `Cc1cnc(NCCc2ccccc2)c(=O)n1CC(=O)NCc1ccc2[nH]nc(N)c2c1` gave a Ki of over 20 nM. With `Cc1cnc(NCCc2ccccn2)c(=O)n1CC(=O)NCc1ccc2[nH]ncc2c1` the Ki was under 20 nM. `Cc1cnc(NCCc2ccc3c(c2)OCO3)c(=O)n1CC(=O)NCc1ccc2[nH]ncc2c1` gave a Ki of under 20 nM. With `Cc1cnc(NCCc2ccccc2)c(=O)n1CC(=O)NCc1ccc2[nH]ncc2c1` the Ki was under 20 nM. Work on `Cc1cnc(NCCc2ccccc2)c(=O)n1CC(=O)NCc1cc2nc[nH]c2cn1` yielded a Ki of over 20 nM. For `Cc1cc2c(c(=O)n1CC(=O)NCc1ccc3[nH]ccc3n1)NC(=O)[C@H](CC1CCC1)C2`, the Ki was under 20 nM. With `Cc1cc2c(c(=O)n1CC(=O)NCc1ccc3[nH]ncc3c1)NC(=O)[C@H](CC1CCC1)C2` the Ki was under 20 nM. `Cc1cc2c(c(=O)n1CC(=O)NCc1cnc3[nH]ccc3c1)NC(=O)[C@H](CC1CCC1)C2` gave a Ki of under 20 nM. `Cc1cnc(NCC(F)(F)CC2CC2)c(=O)n1CC(=O)NCc1ccc2[nH]ccc2n1` gave a Ki of under 20 nM. For `Cc1cnc(NCC(F)(F)c2ccccc2)c(=O)n1CC(=O)NCc1ccc2[nH]ncc2c1`, the Ki was under 20 nM. With `Cc1noc2ccc(CNC(=O)Cn3c(C)cnc(NCCc4ccccn4)c3=O)cc12` the Ki was over 20 nM. Work on `Cc1cc(SCC2CCC2)c(N)c(=O)n1CC(=O)NCc1ccc2[nH]nc(N)c2c1` yielded a Ki of over 20 nM. In the case of `Cc1cnc(NCC(F)(F)c2ccccc2)c(=O)n1CC(=O)NCc1ccc2[nH]nc(N)c2c1`, the Ki is reported as under 20 nM. `Cc1c(CNC(=O)Cn2c(C)cnc(NCCc3ccccc3)c2=O)cnc2[nH]ccc12` showed a Ki of over 20 nM. `Cc1cnc(NCC(F)(F)c2ccccn2)c(=O)n1CC(=O)NCc1ccc2[nH]cnc2c1` showed a Ki of under 20 nM. Work on `Cc1cnc(NCC(F)(F)c2ccccc2)c(=O)n1CC(=O)NCc1ccc2[nH]cnc2c1` yielded a Ki of under 20 nM. In the case of `Cc1cnc(NCCc2ccccc2)c(=O)n1CC(=O)NCc1cnc2[nH]cnc2c1`, the Ki is reported as over 20 nM. In the case of `Cc1cnc(NCC(F)(F)c2ccccc2)c(=O)n1CC(=O)NCc1cnc2[nH]cnc2c1`, the Ki is reported as under 20 nM. Compound `Cc1cnc(NCC(F)(F)c2ccccn2)c(=O)n1CC(=O)NCc1cnc2[nH]cnc2c1` has a Ki of under 20 nM. `Cc1cc(SCC2CCC2)c(N)c(=O)n1CC(=O)NCc1cnc2[nH]cnc2c1` gave a Ki of over 20 nM. With `Cc1cc(SCC2CC2)c(N)c(=O)n1CC(=O)NCc1cnc2[nH]cnc2c1` the Ki was over 20 nM. In the case of `Cc1cc2c(c(=O)n1CC(=O)NCc1ccc3[nH]ccc3n1)NC(=O)[C@H](CC1CC1)C2`, the Ki is reported as under 20 nM. With `Cc1cc2c(c(=O)n1CC(=O)NCc1ccc3[nH]ccc3n1)NC(=O)[C@H](CC(C)C)C2` the Ki was under 20 nM. Compound `Cc1cc2c(c(=O)n1CC(=O)NCc1cc3cc[nH]c3cn1)NC(=O)[C@H](CC1CCC1)C2` has a Ki of under 20 nM. `Cc1cnc(NCC(F)(F)c2ccccn2)c(=O)n1CC(=O)NCc1ccc2[nH]ccc2n1` gave a Ki of under 20 nM. In the case of `Cc1cnc(NCC(F)(F)c2ccccc2)c(=O)n1CC(=O)NCc1cc2cc[nH]c2cn1`, the Ki is reported as under 20 nM. For `Cc1nc2cc(CNC(=O)Cn3c(C)cnc(NCC(F)(F)c4ccccc4)c3=O)ccc2[nH]1`, the Ki was over 20 nM. With `Cc1cc(SCC2CCC2)c(N)c(=O)n1CC(=O)NCc1ccc2[nH]cnc2c1` the Ki was under 20 nM. `Cc1cnc(NCCc2ccccc2)c(=O)n1CC(=O)NCc1cc2c(Cl)c[nH]c2cn1` gave a Ki of under 20 nM. `Cc1cc(SCC2CC2)c(N)c(=O)n1CC(=O)NCc1ccc2[nH]cnc2c1` showed a Ki of over 20 nM. `Cc1cnc(NCCCCC2CC2)c(=O)n1CC(=O)NCc1cc2cc[nH]c2cn1` showed a Ki of under 20 nM. `Cc1cnc(NCC(F)(F)c2ccccn2)c(=O)n1CC(=O)NCc1cc2cc[nH]c2cn1` showed a Ki of under 20 nM. `Cc1cnc(NCCc2ccccn2)c(=O)n1CC(=O)NCc1cc2c(Cl)c[nH]c2cn1` gave a Ki of under 20 nM. `Cc1cnc(NCC2(c3ccccn3)CC2)c(=O)n1CC(=O)NCc1ccc2[nH]ccc2c1` [drawing 16] gave a Ki of under 20 nM. Work on `Cc1cnc(NCC2(c3ccccn3)CC2)c(=O)n1CC(=O)NCc1ccc2[nH]cnc2c1` [drawing 18] yielded a Ki of under 20 nM. Compound `Cc1cc2[nH]cnc2cc1CNC(=O)Cn1c(C)cnc(NCCc2ccccn2)c1=O` [drawing 19] has a Ki of over 20 nM. For `Cc1cc2[nH]cnc2cc1CNC(=O)Cn1c(C)cnc(NCC2(c3ccccn3)CC2)c1=O` [drawing 20], the Ki was under 20 nM. Work on `Cc1cnc(NCCc2ccccn2)c(=O)n1CC(=O)NCc1ccc2[nH]cc(Cl)c2c1` [drawing 38] yielded a Ki of under 20 nM. For `Cc1cnc(NCCc2ccccc2)c(=O)n1CC(=O)NCc1ccc2[nH]cc(Cl)c2c1` [drawing 39], the Ki was under 20 nM.
